In patent US9790215B2 (FLATLEY DISCOVERY LAB, LLC, priority 2013, dated 2017):
pEC50: −log10 of the molar value.

Target: T1, human ΔF508-CFTR (Homo sapiens, UniProt P13569, DEL508-508)
T1 construct: expressed in transfected cells
Assay: CFTR-YFP High Throughput Assay (YFP halide flux in FRT cells)
Assay type: cell-based
Conditions: FRT cells expressing human ΔF508-CFTR and YFP; for pEC50: forskolin stimulated
Method in brief: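 FRT cells stably co-expressing human ΔF508-CFTR and halide-sensitive YFP-H148Q/I152L were treated with compound […] for 24–26 h at 37 °C (corrector mode), washed, then stimulated with 20 μM forskolin plus 30 μM potentiator P3 for 60–120 min at room temperature. Iodide-induced YFP quench (ex 500/em 540 nm) rates came from least-squares fitting.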

T1 sequence (P13569 with tags, fused parts or gaps DEL508-508): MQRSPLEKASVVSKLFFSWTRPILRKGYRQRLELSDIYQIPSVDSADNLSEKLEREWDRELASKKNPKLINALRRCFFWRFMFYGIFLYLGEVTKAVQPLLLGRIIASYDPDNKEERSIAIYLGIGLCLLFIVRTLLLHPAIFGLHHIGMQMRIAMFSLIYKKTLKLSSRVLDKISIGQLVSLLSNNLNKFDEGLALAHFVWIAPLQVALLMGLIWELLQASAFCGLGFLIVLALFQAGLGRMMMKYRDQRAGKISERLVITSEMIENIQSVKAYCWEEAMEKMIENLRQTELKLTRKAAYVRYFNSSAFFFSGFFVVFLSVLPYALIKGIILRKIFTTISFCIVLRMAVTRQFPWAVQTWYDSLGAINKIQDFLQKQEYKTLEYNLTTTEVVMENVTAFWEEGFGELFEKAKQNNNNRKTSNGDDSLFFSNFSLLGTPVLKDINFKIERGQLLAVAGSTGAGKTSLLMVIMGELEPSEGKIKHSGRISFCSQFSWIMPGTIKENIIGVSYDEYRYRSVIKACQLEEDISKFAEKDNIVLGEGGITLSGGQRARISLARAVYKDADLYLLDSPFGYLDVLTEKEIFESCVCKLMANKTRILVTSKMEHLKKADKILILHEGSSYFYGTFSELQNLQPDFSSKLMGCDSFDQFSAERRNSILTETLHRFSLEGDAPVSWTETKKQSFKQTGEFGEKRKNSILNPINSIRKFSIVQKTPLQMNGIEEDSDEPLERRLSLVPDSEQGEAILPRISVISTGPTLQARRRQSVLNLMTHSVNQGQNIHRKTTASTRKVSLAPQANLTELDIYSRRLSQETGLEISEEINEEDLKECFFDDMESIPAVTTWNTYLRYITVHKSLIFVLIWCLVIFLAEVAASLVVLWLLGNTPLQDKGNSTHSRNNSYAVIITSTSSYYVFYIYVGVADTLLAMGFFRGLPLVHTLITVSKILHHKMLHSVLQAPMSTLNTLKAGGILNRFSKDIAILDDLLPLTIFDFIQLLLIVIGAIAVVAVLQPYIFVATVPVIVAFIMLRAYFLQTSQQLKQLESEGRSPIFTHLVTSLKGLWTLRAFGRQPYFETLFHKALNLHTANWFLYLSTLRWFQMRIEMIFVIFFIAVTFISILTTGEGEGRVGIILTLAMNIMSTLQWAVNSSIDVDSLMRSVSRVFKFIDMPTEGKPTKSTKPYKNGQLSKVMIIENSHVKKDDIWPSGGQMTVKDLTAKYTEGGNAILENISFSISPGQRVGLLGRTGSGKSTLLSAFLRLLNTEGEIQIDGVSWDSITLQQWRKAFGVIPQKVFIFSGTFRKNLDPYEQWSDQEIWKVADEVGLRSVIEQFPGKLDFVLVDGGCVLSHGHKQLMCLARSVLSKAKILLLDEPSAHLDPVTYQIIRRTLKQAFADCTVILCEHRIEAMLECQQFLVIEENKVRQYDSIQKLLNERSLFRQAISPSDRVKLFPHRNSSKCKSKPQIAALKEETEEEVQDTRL

Row | Compound | % Efficacy (Emax normalized to the positive control) | pEC50
1 | CCN(C(=O)c1nn(-c2ccccc2F)c(=O)c2c1c1ccccc1n2C)c1ccccc1 [Example 127, N-ethyl-3-(2-fluorophenyl)-5-methyl-4-oxo-N-phenyl-4,5-dihydro-3H-pyridazino[4,5-b]indole-1-carboxamide] | +++ (EMAX > 80%) | > 5.00
2 | CCN(C(=O)c1nn(-c2cnc3ccccc3c2)c(=O)c2c1c1ccccc1n2C)c1ccccc1 [Example 128, N-ethyl-5-methyl-4-oxo-N-phenyl-3-(quinolin-3-yl)-4,5-dihydro-3H-pyridazino[4,5-b]indole-1-carboxamide] |  | > 5.00
3 | CCN(C(=O)c1nn(-c2ccc(Cl)cc2)c(=O)c2c1c1ccccc1n2C)c1ccccc1 [Example 129, 3-(4-chlorophenyl)-N-ethyl-5-methyl-4-oxo-N-phenyl-4,5-dihydro-3H-pyridazino[4,5-b]indole-1-carboxamide] |  | > 5.00
4 | CCN(C(=O)c1nn(-c2ccc(OC)cc2)c(=O)c2c1c1ccccc1n2C)c1ccccc1 [Example 130, N-ethyl-3-(4-methoxyphenyl)-5-methyl-4-oxo-N-phenyl-4,5-dihydro-3H-pyridazino[4,5-b]indole-1-carboxamide] |  | > 5.00
5 | CCN(C(=O)c1nn(-c2ccc(C)cn2)c(=O)c2c1c1ccccc1n2C)c1ccccc1 [Example 131, N-ethyl-5-methyl-3-(5-methylpyridin-2-yl)-4-oxo-N-phenyl-4,5-dihydro-3H-pyridazino[4,5-b]indole-1-carboxamide] |  | > 5.00
6 | CCN(C(=O)c1nn(-c2ccccc2)c(=O)c2c1c1ccccc1n2C)c1cccc(Cl)c1 [Example 132, N-(3-chlorophenyl)-N-ethyl-5-methyl-4-oxo-3-phenyl-4,5-dihydro-3H-pyridazino[4,5-b]indole-1-carboxamide] |  | > 5.00
7 | CCN(C(=O)c1nn(-c2ccc(C)cc2)c(=O)c2c1c1ccccc1n2C)c1ccc2c(c1)OC(F)(F)O2 [Example 133, N-(2,2-difluorobenzo[d][1,3]dioxol-5-yl)-N-ethyl-5-methyl-4-oxo-3-(p-tolyl)-4,5-dihydro-3H-pyridazino[4,5-b]indole-1-carboxamide] |  | > 5.00
8 | CCN(C(=O)c1nn(-c2ccc(C)cc2)c(=O)c2c1c1ccccc1n2C)c1cc(Cl)ccc1C(=O)O [Example 134, 4-chloro-2-(N-ethyl-5-methyl-4-oxo-3-(p-tolyl)-4,5-dihydro-3H-pyridazino[4,5-b]indole-1-carboxamido)benzoic acid] |  | > 5.00
9 | Cc1ccc(-n2nc(C(=O)Nc3cc(Cl)ccc3C(=O)O)c3c4ccccc4n(C)c3c2=O)cc1 [Example 135, 4-chloro-2-(5-methyl-4-oxo-3-(p-tolyl)-4,5-dihydro-3H-pyridazino[4,5-b]indole-1-carboxamido)benzoic acid] |  | > 5.00
10 | CCN(C(=O)c1nn(Cc2ccccc2)c(=O)c2c1c1ccccc1n2C)c1ccccc1 [Example 136, 3-benzyl-N-ethyl-5-methyl-4-oxo-N-phenyl-4,5-dihydro-3H-pyridazino[4,5-b]indole-1-carboxamide] |  | < 4.70
11 | CCN(C(=O)c1nn(C2CCN(Cc3ccccc3)CC2)c(=O)c2c1c1ccccc1n2C)c1ccccc1 [Example 137, 3-(1-benzylpiperidin-4-yl)-N-ethyl-5-methyl-4-oxo-N-phenyl-4,5-dihydro-3H-pyridazino[4,5-b]indole-1-carboxamide] |  | > 5.00
12 | CCN(C(=O)c1nn(C(C)C)c(=O)c2c1c1ccccc1n2C)c1cccc(Cl)c1 [Example 140, N-(3-chlorophenyl)-N-ethyl-3-isopropyl-5-methyl-4-oxo-4,5-dihydro-3H-pyridazino[4,5-b]indole-1-carboxamide] |  | > 5.00
13 | CCN(C(=O)Cn1nc(C(=O)N(CC)c2cccc(Cl)c2)c2c3ccccc3n(C)c2c1=O)c1ccc2c(c1)OC(F)(F)O2 [Example 141, N-(3-chlorophenyl)-3-(2-((2,2-difluorobenzo[d][1,3]dioxol-5-yl)(ethyl)amino)-2-oxoethyl)-N-ethyl-5-methyl-4-oxo-4,5-dihydro-3H-pyridazino[4,5-b]indole-1-carboxamide] |  | > 5.00
14 | N-ethyl-N-(4-ethylphenyl)-2-(1-oxo-4-(4-sulfamoylphenyl)phthalazin-2(1H)-yl)acetamide [Example 12] | ++ (a range of 80%-30%) | < 4.70
15 | N-ethyl-N-(4-ethylphenyl)-2-(4-(3-hydroxyphenyl)-1-oxophthalazin-2(1H)-yl)acetamide [Example 8] | ++ (a range of 80%-30%) | > 5.00
16 | N-ethyl-N-(4-ethylphenyl)-2-(4-(4-(methylsulfonyl)phenyl)-1-oxophthalazin-2(1H)-yl)acetamide [Example 15] | + (a range of 30%-10%) | < 4.70
17 | methyl 4-(3-(2-(ethyl(4-ethylphenyl)amino)-2-oxoethyl)-4-oxo-3,4-dihydrophthalazin-1-yl)benzoate [Example 14] | ++ (a range of 80%-30%) | < 4.70

The remaining lines, values ahead:

Row | % Efficacy (Emax normalized to the positive control) | pEC50 | Compound
18 |  | > 5.00 | CCc1ccc(N(CC)C(=O)Cn2nc(C(=O)N(CC)c3cccc(Cl)c3)c3c4ccccc4n(C)c3c2=O)cc1 [Example 142, N-(3-chlorophenyl)-N-ethyl-3-(2-(ethyl(4-ethylphenyl)amino)-2-oxoethyl)-5-methyl-4-oxo-4,5-dihydro-3H-pyridazino[4,5-b]indole-1-carboxamide]
19 |  | > 5.00 | CCN(C(=O)c1nn(C2CCCCC2)c(=O)c2c1c1ccccc1n2C)c1cccc(Cl)c1 [Example 143, N-(3-chlorophenyl)-3-cyclohexyl-N-ethyl-5-methyl-4-oxo-4,5-dihydro-3H-pyridazino[4,5-b]indole-1-carboxamide]
20 |  | > 5.00 | CCN(C(=O)c1nn(C(C)C)c(=O)c2c1c1ccccc1n2C)c1cc(Cl)ccc1C#N [Example 144, N-(5-chloro-2-cyanophenyl)-N-ethyl-3-isopropyl-5-methyl-4-oxo-4,5-dihydro-3H-pyridazino[4,5-b]indole-1-carboxamide]
21 |  | > 5.00 | CCN(CC)C(=O)c1nn(CC(=O)N(CC)c2ccc3c(c2)OC(F)(F)O3)c(=O)c2c1c1ccccc1n2C [Example 145, 3-(2-((2,2-difluorobenzo[d][1,3]dioxol-5-yl)(ethyl)amino)-2-oxoethyl)-N,N-diethyl-5-methyl-4-oxo-4,5-dihydro-3H-pyridazino[4,5-b] indole-1-carboxamide]
22 |  | 4.70 to 5.00 | CCN(C(=O)c1nn(-c2ccc(C)cc2)c(=O)c2c1c1ccccc1n2C1CCC1)c1ccccc1 [Example 146, 5-cyclobutyl-N-ethyl-4-oxo-N-phenyl-3-p-tolyl-4,5-dihydro-3H-pyridazino[4,5-b]indole-1-carboxamide]
23 |  | > 5.00 | CCN(C(=O)c1nn(-c2ccc(C)cc2)c(=O)c2[nH]c3ccccc3c12)c1ccccc1 [Example 147, N-Ethyl-4-oxo-N-phenyl-3-p-tolyl-4,5-dihydro-3H-pyridazino[4,5-b]indole-1-carboxamide]
24 |  | > 5.00 | CCN(C(=O)c1nn(-c2ccc(C)cc2)c(=O)c2[nH]c3ccccc3c12)c1cccc(Cl)c1 [Example 148, N-(3-chlorophenyl)-N-ethyl-4-oxo-3-(p-tolyl)-4,5-dihydro-3H-pyridazino[4,5-b]indole-1-carboxamide]
25 |  | > 5.00 | CCN(C(=O)Cn1ncc2c([nH]c3ccccc32)c1=O)c1ccc2c(c1)OC(F)(F)O2 [Example 149, N-(2,2-difluorobenzo[d][1,3]dioxol-5-yl)-N-ethyl-2-(4-oxo-4,5-dihydro-3H-pyridazino[4,5-b]indol-3-yl)acetamide]
26 |  | < 4.70 | CCN(C(=O)c1nn(-c2ccc(C)cc2)c(=O)c2c1c1ccccc1n2CC#N)c1ccccc1 [Example 150, 5-(cyanomethyl)-N-ethyl-4-oxo-N-phenyl-3-(p-tolyl)-4,5-dihydro-3H-pyridazino[4,5-b]indole-1-carboxamide]
27 |  | < 4.70 | CCN(C(=O)c1nn(-c2ccc(C)cc2)c(=O)c2c1c1ccccc1n2CC(=O)O)c1ccccc1 [Example 151, 2-(1-(ethyl(phenyl)carbamoyl)-4-oxo-3-(p-tolyl)-3H-pyridazino[4,5-b]indol-5(4H)-yl)acetic acid]
28 |  | < 4.70 | CCN(C(=O)c1nn(-c2ccc(C)cc2)c(=O)c2c1c1ccccc1n2C(C)C)c1ccccc1 [Example 152, N-ethyl-5-isopropyl-4-oxo-N-phenyl-3-(p-tolyl)-4,5-dihydro-3H-pyridazino[4,5-b]indole-1-carboxamide]
29 |  | < 4.70 | CCN(C(=O)c1nn(-c2ccc(C)cc2)c(=O)c2c1c1ccccc1n2Cc1ccccn1)c1ccccc1 [Example 153, N-ethyl-4-oxo-N-phenyl-5-(pyridin-2-ylmethyl)-3-(p-tolyl)-4,5-dihydro-3H-pyridazino[4,5-b]indole-1-carboxamide]
30 |  | < 4.70 | CCN(C(=O)Cn1nc(Cc2cccnc2)c2c3ccccc3n(C)c2c1=O)c1ccc2c(c1)OC(F)(F)O2 [Example 157, N-(2,2-difluorobenzo[d][1,3]dioxol-5-yl)-N-ethyl-2-(5-methyl-4-oxo-1-(pyridin-3-ylmethyl)-4,5-dihydro-3H-pyridazino[4,5-b]indol-3-yl)acetamide]
31 | ++ (a range of 80%-30%) | > 5.00 | N-(2,2-difluorobenzo[d][1,3]dioxol-5-yl)-N-ethyl-2-(1-oxo-4-(4-sulfamoyl-phenyl)phthalazin-2(1H)-yl)acetamide [Example 17]
32 | ++ (a range of 80%-30%) | 4.70 to 5.00 | N-(2,2-difluorobenzo[d][1,3]dioxol-5-yl)-N-ethyl-2-(1-oxo-4-(pyridin-3-yl)phthalazin-2(1H)-yl)acetamide [Example 23]
33 | ++ (a range of 80%-30%) | > 5.00 | N-(2,2-difluorobenzo[d][1,3]dioxol-5-yl)-N-ethyl-2-(4-(3-fluorophenyl)-1-oxophthalazin-2(1H)-yl)acetamide [Example 22]
